In the NIST ThermoML archive (doi:10.1016/j.fluid.2008.06.007):
Numbers after ± are expanded uncertainties.

Conditions: Liquid, Vibrating tube method

CCCCCO [pentan-1-ol]
mass density [kg/m3]
Conditions	353.15 K	363.15 K	373.15 K	383.15 K	393.15 K	403.15 K
100 kPa	768.1 ± 1.1	759.4 ± 1.1	750.7 ± 1.1	741.5 ± 1.1	731.7 ± 1.1	721.7 ± 1.1
10000 kPa	777.3 ± 1.1	769.2 ± 1.1	761.2 ± 1.1	752.3 ± 1.1	743.4 ± 1.1	734.4 ± 1.1
20000 kPa	785.6 ± 1.1	777.7 ± 1.1	770.3 ± 1.1	761.9 ± 1.1	753.7 ± 1.1	745.3 ± 1.1
30000 kPa	792.9 ± 1.1	785.6 ± 1.1	778.2 ± 1.1	770.7 ± 1.1	762.8 ± 1.1	754.9 ± 1.1
40000 kPa	799.8 ± 1.1	792.6 ± 1.1	785.7 ± 1.1	778.5 ± 1.1	771 ± 1.1	763.4 ± 1.2
50000 kPa	806.1 ± 1.1	799.2 ± 1.1	792.5 ± 1.2	785.7 ± 1.2	778.6 ± 1.2	771.3 ± 1.2
60000 kPa	812 ± 1.2	805.5 ± 1.2	798.9 ± 1.2	792.3 ± 1.2	785.6 ± 1.2	778.4 ± 1.2
70000 kPa	817.6 ± 1.2	811.3 ± 1.2	804.9 ± 1.2	798.5 ± 1.2	792 ± 1.2	785.1 ± 1.2
80000 kPa	822.8 ± 1.2	816.7 ± 1.2	810.5 ± 1.2	804.3 ± 1.2	798.1 ± 1.2	791.3 ± 1.3
90000 kPa	827.8 ± 1.2	821.8 ± 1.2	815.8 ± 1.2	809.7 ± 1.3	803.7 ± 1.3	797.2 ± 1.3
100000 kPa	832.6 ± 1.2	826.8 ± 1.3	820.9 ± 1.3	815 ± 1.3	809.1 ± 1.3	802.8 ± 1.3
110000 kPa	837.2 ± 1.3	831.3 ± 1.3	825.7 ± 1.3	819.9 ± 1.3	814.2 ± 1.3	808 ± 1.3
120000 kPa	841.6 ± 1.3	835.8 ± 1.3	830.3 ± 1.3	824.7 ± 1.3	819.1 ± 1.4	813 ± 1.4
130000 kPa	845.8 ± 1.3	840.1 ± 1.3	834.7 ± 1.3	829.2 ± 1.4	823.7 ± 1.4	817.8 ± 1.4
140000 kPa	849.7 ± 1.3	844.2 ± 1.3	839 ± 1.4	833.5 ± 1.4	828.1 ± 1.4	822.3 ± 1.4
